One compound from patent publication US20120034210A1, “COMPOSITIONS FOR POTENTIATING APOPOSIS SIGNALS IN TUMOUR CELLS” (INSTITUT BERGONIE, priority 2008, published 2012) can be followed below.

Entries after “also recorded” stand apart in the source; their conditions may differ.

Assay type in all cases: cell-based, human
Experiment [1] concerns T and B leukemia/lymphoma cell lines and activated PBLs treated with FasL. Nature of the experiment: Fas/CD95-mediated cell death (MTT test). As for the experimental part: 2 to 4.10^4 cells were deposited in wells in a 96-well plate. The cells were incubated, in the presence of the different reactants for the times specified, at 37° C. in a final volume of 100 or 200 μl.
The MTT test enabled to measure the activity of a mitochondrial enzyme, the dehydrogenase succinate which transforms MTT (or 3-(4,5-dimethylthiazol-2-yl)-2,5-diphenyltetrazolium) bromide originally yellow in colour and soluble, into blue formazan crystals, insoluble in aqueous phase. Upon completion of the different treatments, the living cells were quantified by adding in each well 15 μl PBS (Phosphate Buffered Saline) containing 5 mg/ml MTT. […] Spectrophotometric reading of absorbance was done at 570 nm. The measurement of the optical density is directly proportional to the number of living cells and the percentage of cell death was calculated with the following formula: 100-[(DO treated cells/DO non-treated cells)*100].

The test system of another experiment is CD95. Nature of the experiment: CD95 capping (CD95-CAP), fluorescence confocal microscopy. Conditions: leukemic cell lines; culture up to 24 hours. As to the method: The cells were left to adhere on a slide pre-treated with poly-L-lysin (ESCO, VWR) for 5 minutes then incubated with the different reactants. The cells activated with the anti-Fas APO1-3 agonist antibody were washed and marked directly with the anti-mouse secondary antibody coupled with Alexa555 fluorochrome. The cells incubated with Rituximab (anti-CD20) were washed in a cold PBS buffer then fixed with a PBS/4% PFA (paraformaldehyde) solution for 15 min. […] The cells were washed in PBS medium then the slide was dried and the cells were placed in a mounting medium, Fluoroprep (Biomerieux) and analysed by fluorescence confocal microscopy (LSM SP5, Leica, Germany) with an x63 zoom. The DAPI (200 ng/ml) allowed colouring the nuclei.

The target in a further experiment is caspase-8. The experiment in a line: Caspase-8 activation/cleavage.

`CC(=O)OCOC(=O)CN(CC(=O)OCOC(C)=O)c1ccccc1OCCOc1ccccc1N(CC(=O)OCOC(C)=O)CC(=O)OCOC(C)=O` [BAPTA-AM, 1,2-bis-(o-Aminophenoxy)ethane-N,N,N′,N′-tetraacetic tetra-(acetoxymethyl) acid Ester]: the “sensitisation to the Fas-mediated apoptotic signal (% cell death)” value is reported as “sensitised to the Fas-mediated apoptotic signal; also recorded: increase in percentage of cell death” in experiment [1] (BAPTA-AM 1 μM pre-incubation then FasL, leukemia/lymphoma cell lines and activated PBLs); “have not been sensitised” in experiment [1] (BAPTA-AM 1 μM then FasL, BL2 cell line devoid of endogenous Fas). In addition, the “CD95-mediated apoptotic signal in CD95-resistant cells” value in experiment [1] (Jurkat-CD95Q257K, pre-incubation with non-cytotoxic doses) was “restored the CD95-mediated apoptotic signal at a level comparable to the parental cell line”. Moreover, the “apoptotic signal by the agent alone” value in experiment [1] (leukemic cell lines, long-term culture up to 24 hours, no CD95L) was “did not trigger the apoptotic signal”. Also, the CD95-CAP formation entry with CD95 is “drives CD95-CAP”. For the same compound, the “kinetic of caspase-8 cleavage upon CD95L” value on caspase-8 (T and B-cell lines) is recorded as “accelerated the cleavage of the initiator caspase-8”. For the same compound, the “caspase-8 activation or mitochondrial depolarization by the agent alone” value in the experiment on caspase-8 (during 60 minutes treatment, no CD95L) is listed as “no trace of caspase-8 activation or mitochondrial depolarization was detected”.
